This note sets out measurements from patent US4383990A, “Antiviral agents, their preparation and use” (priority 1980, dated 1983).

A word on the IC50: it is the concentration at which inhibition is half-maximal. Low readings indicate greater potency in that assay, high ones weaker potency in that assay.

Each structure is given as a SMILES string. In brackets after ≈: the same amount, converted by molar mass.

In data set [1] the test system is Herpes simplex type 1 virus (HFEM strain). The data set is described as follows: Plaque reduction of Herpes simplex type 1 virus (HFEM strain) in Vero cells. The settings on record: for ED50 (concentration reducing the plaque number at 50%): HSV-1 strain HFEM, 8640 min; for ED50 (concentration reducing the plaque number at 50%) / IC50: Vero cells; for IC50: Human alphaherpesvirus 1, 144 h, HSV-1 HFEM strain, 37° C., 6 days. Type of data set: cell-based, Herpes simplex virus type 1. The text has this: (§1) The same method was used to determine the ED50 (concentration reducing the plaque number at 50%) of the E/Z mixture against the KOS and SK16 strains of Herpes simplex virus type 1 and the ED50 of the E/Z mixture and the separated isomers ("peak 1" and "peak 2") against the HFEM strain.

The conditions of data set [2]: african green monkey, vero cells.
Description: Vero (African Green Monkey Kidney) cells were grown to confluence in 6 well multidishes, each well being 3.5 cm in diameter. The cells were incubated with Herpes simplex type 1 virus (HFEM strain) and overlaid with 0.5 mL of 0.9% agarose (w/v) in maintenance medium containing the test compound at a range of concentrations from 200 μg/mL in half-log dilution steps. The virus infected cultures were then incubated at 37° C. for 6 days before fixing in 4% formaldehyde solution and staining with carbolfuchsin. The dishes were then examined to find that concentration of test compound causing a 50% reduction in the number of virus plaques formed (PDD50 value) and the minimum concentration of test compound which killed the cell monolayer, leaving a clear zone devoid of cells and virus plaques (MTD).
The test system of data set [3] is human diploid fibroblast MRC-5 cell line. The data set is described as follows: Anti-host cell activity: proliferation of human diploid fibroblast MRC-5 cells. Type of data set: cell-based. The settings on record: even at 200 μg/ml.
The test system of data set [4] is Herpes simplex virus type 1 (SCl6 strain). Kind of data set: Plaque reduction of Herpes simplex virus type 1, SCl6 strain. Type of data set: cell-based. The settings on record: Human alphaherpesvirus 1, 144 h; HSV-1 strain SCl6, Vero cells; read-out: ED50 (concentration reducing the plaque number at 50%).
Description: as §1

Data set [5] concerns Vero cells. Kind of data set: Anti-host cell activity: growth of Vero cells. Type of data set: cell-based, African Green Monkey. The settings on record: Vero cells, 72 h. Here is the method:
(§2) Vero cells seeded at low density were grown in the presence of E/Z-5-(2-chloro-1,2-difluorovinyl)-2'-deoxyuridine for 72 h. During this time the cells doubled in number approximately once every 24 h. […] 5-(2-Chloro-1,2-difluorovinyl)-2'-deoxyuridine thus has a therapeutic ratio of >5.

Data set [6] in a line: Anti-host cell activity: growth of Vero cells. Type of data set: cell-based, African Green Monkey. The settings on record: monkey, vero cells; Vero cell growth versus antiviral activity; read-out: Therapeutic ratio. Here is the method:
as §2

Data set [7] concerns Herpes simplex virus type 1 (KOS strain). Kind of data set: Plaque reduction of Herpes simplex virus type 1, KOS strain. The settings on record: Human alphaherpesvirus 1, 144 h; HSV-1 strain KOS, Vero cells; read-out: ED50 (concentration reducing the plaque number at 50%). Type of data set: cell-based.
Description: as §1

For `O=c1[nH]c(=O)n([C@H]2C[C@H](O)[C@@H](CO)O2)cc1C(F)=C(F)Cl` (single isomer, unassigned) [Peak 1], the “ED50 (concentration reducing the plaque number at 50%)” value in data set [1] was over 100 µg/mL.
As to `O=c1[nH]c(=O)n([C@H]2C[C@H](O)[C@@H](CO)O2)cc1C(F)=C(F)Cl` (single isomer, unassigned) [Peak 2], the “ED50 (concentration reducing the plaque number at 50%)” value in data set [1] is 24 ± 6 µg/mL (≈ 73.9 µM). Moreover, the “Activity of the separated isomers in the screens” value in data set [1] (in words, at the levels tested) is on record as “Only one of the isomers is active at the levels tested”.
In data set [2], `O=c1[nH]c(=O)n([C@H]2C[C@H](O)[C@@H](CO)O2)cc1I` [5-iodo-2'-deoxyuridine, reference compound] displayed an MCC at 144 h of over 100 µg/mL. Further, 3 µg/mL (≈ 8.47 µM) corresponded to half-maximal inhibition in data set [1] (IC50).
Turning to `O=c1[nH]c(=O)n([C@H]2C[C@H](O)[C@@H](CO)O2)cc1C(F)=C(F)Cl` [E/Z-5-(1,2-Difluoro-2-chlorovinyl)-2'-deoxyuridine], the “Effect on cell proliferation” value in data set [3] was “little effect on cell proliferation”. For the same compound, the EC50 worked out at 21 µg/mL (≈ 64.7 µM) in data set [4] and 20 µg/mL (≈ 61.6 µM) in data set [7]. The “Cell doubling time in the presence of compound” value in data set [5] was about 24 h. The “Depression of cell growth” value in data set [5] (100 μg/ml) is listed as “only slight depression of cell growth was observed”. Besides, the selectivity ratio in data set [6] is over 5. Also, in data set [2], the MCC at 144 h was over 200 µg/mL. For the same compound, the “ED50 (concentration reducing the plaque number at 50%)” value in data set [1] (listed as E/Z) was determined as 24 ± 3 µg/mL (≈ 73.9 µM). This compound showed a half-maximal inhibitory concentration (IC50) in data set [1] of 14 µg/mL (≈ 43.1 µM).
